Laboratory results reported in the supplement of paper PMC6045584.

Compound: CCN(CC)CCCCNc1ncc2cc(-c3cc(OC)cc(OC)c3)c(NC(=O)NC(C)(C)C)nc2n1
Assay: area under dose-response curve of surviving fraction (unscaled, Aref=0) (surviving fraction x log10(nM)); higher = more resistant
Conditions: exposure time: 5 days; dose range 0.5-1000 nM
In short: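 Inhibitor was applied to tumour cell lines at eight concentrations (0.5 to 1000 nM) for five days in 384-well plates. Luminescence from CellTiter-Glo, scaled to DMSO-only wells, gave surviving fractions in three screens per line, and these were fitted by 3-parameter logistic regression with the drc R package. The area under the curve is an unscaled activity area. Aref was 0, and dose was on a log10 scale.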

| Test System | area under dose-response curve |
| --- | --- |
| G292 BONE | 2.16 |
| HCC70 BREAST | 3.36 |
| HMLE3 BREAST | 2.61 |
| HS578T BREAST | 3.03 |
